{"source": "ChEMBL document CHEMBL1240307", "about": "“A functional genomics approach to the mode of action of apratoxin A” (Nat Chem Biol, 2006)", "key": {"[1]": {"system": "NCI-H23", "assay": "Cytotoxicity against human NCI-H23 cells by sulforhodamine B assay", "format": "functional"}, "[2]": {"system": "NCI-H322M", "assay": "Cytotoxicity against human NCI-H322M cells by sulforhodamine B assay", "format": "functional"}, "[3]": {"system": "NCI-H460", "assay": "Cytotoxicity against human NCI-H460 cells by sulforhodamine B assay", "format": "functional"}, "[4]": {"system": "HCC 2998", "assay": "Cytotoxicity against human HCC2998 cells by sulforhodamine B assay", "format": "functional"}, "[5]": {"system": "HCT-116", "assay": "Cytotoxicity against human HCT116 cells by sulforhodamine B assay", "format": "functional"}, "[6]": {"system": "HT-29", "assay": "Cytotoxicity against human HT-29 cells by sulforhodamine B assay", "format": "functional"}, "[7]": {"system": "SW-620", "assay": "Cytotoxicity against human SW620 cells by sulforhodamine B assay", "format": "functional"}, "[8]": {"system": "SNB-19", "assay": "Cytotoxicity against human SNB19 cells by sulforhodamine B assay", "format": "functional"}, "[9]": {"system": "U-251", "assay": "Cytotoxicity against human U251 cells by sulforhodamine B assay", "format": "functional"}, "[10]": {"system": "SK-MEL-28", "assay": "Cytotoxicity against human SK-MEL-28 cells by sulforhodamine B assay", "format": "functional"}, "[11]": {"system": "SK-MEL-5", "assay": "Cytotoxicity against human SK-MEL-5 cells by sulforhodamine B assay", "format": "functional"}, "[12]": {"system": "UACC-257", "assay": "Cytotoxicity against human UACC257 cells by sulforhodamine B assay", "format": "functional"}, "[13]": {"system": "UACC-62", "assay": "Cytotoxicity against human UACC62 cells by sulforhodamine B assay", "format": "functional"}, "[14]": {"system": "IGROV-1", "assay": "Cytotoxicity against human IGROV1 cells by sulforhodamine B assay", "format": "functional"}, "[15]": {"system": "786-0", "assay": "Cytotoxicity against human 786-0 cells by sulforhodamine B assay", "format": "functional"}, "[16]": {"system": "RXF 393", "assay": "Cytotoxicity against human RXF393 cells by sulforhodamine B assay", "format": "functional"}, "[17]": {"system": "UO-31", "assay": "Cytotoxicity against human UO31 cells by sulforhodamine B assay", "format": "functional"}, "[18]": {"system": "T47D", "assay": "Cytotoxicity against human T47D cells by sulforhodamine B assay", "format": "functional"}, "[19]": {"system": "HT-29", "assay": "Antitumor activity against human HT-29 cells assessed as upregulation of RASSF4 mRNA expression at 2 nM after 6 hrs relative to control", "format": "functional"}, "[20]": {"system": "HT-29", "assay": "Antitumor activity against human HT-29 cells assessed as upregulation of RASSF4 mRNA expression at 10 nM after 6 hrs relative to control", "format": "functional"}, "[21]": {"system": "HT-29", "assay": "Antitumor activity against human HT-29 cells assessed as upregulation of RASSF4 mRNA expression at 2 nM after 12 hrs relative to control", "format": "functional"}, "[22]": {"system": "HT-29", "assay": "Antitumor activity against human HT-29 cells assessed as upregulation of RASSF4 mRNA expression at 10 nM after 12 hrs relative to control", "format": "functional"}, "[23]": {"system": "HT-29", "assay": "Antitumor activity against human HT-29 cells assessed as upregulation of DDIT4 mRNA expression at 2 nM after 6 hrs relative to control", "format": "functional"}, "[24]": {"system": "HT-29", "assay": "Antitumor activity against human HT-29 cells assessed as upregulation of HSPA1A mRNA expression at 10 nM after 3 hrs relative to control", "format": "functional"}, "[25]": {"system": "HT-29", "assay": "Antitumor activity against human HT-29 cells assessed as upregulation of HSPA1A mRNA expression at 10 nM after 6 hrs relative to control", "format": "functional"}, "[26]": {"system": "HT-29", "assay": "Antitumor activity against human HT-29 cells assessed as upregulation of HSPA1A mRNA expression at 10 nM after 12 hrs relative to control", "format": "functional"}, "[27]": {"system": "HT-29", "assay": "Antitumor activity against human HT-29 cells assessed as down-regulation of RAB11B mRNA expression at 2 nM after 6 hrs relative to control", "format": "functional"}, "[28]": {"system": "HT-29", "assay": "Antitumor activity against human HT-29 cells assessed as down-regulation of RAB11B mRNA expression at 10 nM after 6 hrs relative to control", "format": "functional"}, "[29]": {"system": "HT-29", "assay": "Antitumor activity against human HT-29 cells assessed as down-regulation of RAB11B mRNA expression at 10 nM after 12 hrs relative to control", "format": "functional"}, "[30]": {"system": "HT-29", "assay": "Antitumor activity against human HT-29 cells assessed as down-regulation of TAL1 mRNA expression at 2 nM after 3 hrs relative to control", "format": "functional"}, "[31]": {"system": "HT-29", "assay": "Antitumor activity against human HT-29 cells assessed as down-regulation of TAL1 mRNA expression at 10 nM after 6 hrs relative to control", "format": "functional"}, "[32]": {"system": "HT-29", "assay": "Antitumor activity against human HT-29 cells assessed as down-regulation of TAL1 mRNA expression at 10 nM after 12 hrs relative to control", "format": "functional"}, "[33]": {"system": "HT-29", "assay": "Antitumor activity against human HT-29 cells assessed as down-regulation of CDC25A mRNA expression at 10 nM after 3 hrs relative to control", "format": "functional"}, "[34]": {"system": "HT-29", "assay": "Antitumor activity against human HT-29 cells assessed as down-regulation of CCNE2 mRNA expression at 10 nM after 3 hrs relative to control", "format": "functional"}, "[35]": {"system": "HT-29", "assay": "Antitumor activity against human HT-29 cells assessed as down-regulation of CCNE2 mRNA expression at 2 nM after 6 hrs relative to control", "format": "functional"}, "[36]": {"system": "HT-29", "assay": "Antitumor activity against human HT-29 cells assessed as down-regulation of CCNE2 mRNA expression at 10 nM after 12 hrs relative to control", "format": "functional"}, "[37]": {"system": "HT-29", "assay": "Antitumor activity against human HT-29 cells assessed as down-regulation of GTSE1 mRNA expression at 2 nM after 3 hrs relative to control", "format": "functional"}, "[38]": {"system": "HT-29", "assay": "Antitumor activity against human HT-29 cells assessed as down-regulation of GTSE1 mRNA expression at 2 nM after 6 hrs relative to control", "format": "functional"}, "[39]": {"system": "HT-29", "assay": "Antitumor activity against human HT-29 cells assessed as down-regulation of GTSE1 mRNA expression at 10 nM after 6 hrs relative to control", "format": "functional"}, "[40]": {"system": "HT-29", "assay": "Antitumor activity against human HT-29 cells assessed as upregulation of KCNK10 mRNA expression at 2 nM after 6 hrs relative to control", "format": "functional"}, "[41]": {"system": "HT-29", "assay": "Antitumor activity against human HT-29 cells assessed as upregulation of MGC4504 mRNA expression at 2 nM after 3 hrs relative to control", "format": "functional"}, "[42]": {"system": "HT-29", "assay": "Antitumor activity against human HT-29 cells assessed as upregulation of MGC4504 mRNA expression at 2 nM after 12 hrs relative to control", "format": "functional"}, "[43]": {"system": "U2OS", "assay": "Cell cycle arrest in human U2OS cells assessed as accumulation at G1 phase at 5 nM after 24 hrs by FACS analysis (reference value: 49.8%)", "format": "functional"}, "[44]": {"system": "U2OS", "assay": "Cell cycle arrest in human U2OS cells assessed as accumulation at G1 phase at 50 nM after 48 hrs by FACS analysis (reference value: 49.8%)", "format": "functional"}, "[45]": {"system": "U2OS", "assay": "Cell cycle arrest in human U2OS cells assessed as accumulation at sub-G1 phase at 50 nM after 48 hrs by FACS analysis relative to control", "format": "functional"}, "[46]": {"assay": "Cytotoxicity against activated human CD4+ T cells assessed as cell viability after 5 days by fluorescence detection method", "format": "cell-based", "conditions": "120 h"}, "[47]": {"system": "U2OS", "assay": "Cell cycle arrest in human U2OS cells overexpressing mouse Fgfr1 assessed as accumulation at G1 phase at 15 nM after 48 hrs by CMV-GFP reporter assay method (reference value: 58%)", "format": "functional"}, "[48]": {"system": "U2OS", "assay": "Antiproliferative activity against human U2OS cells expressing constitutively active Stat3 mutant after 48 hrs by CMV-GFP reporter assay method", "format": "functional, cell-based"}}, "data": [{"smiles": "CC[C@H](C)[C@H]1C(=O)N2CCC[C@H]2C(=O)O[C@H](C(C)(C)C)C[C@@H](C)C[C@H](O)[C@H](C)C2=N[C@@H](/C=C(\\C)C(=O)N[C@@H](Cc3ccc(OC)cc3)C(=O)N(C)[C@@H](C)C(=O)N1C)CS2", "note": "[APRATOXIN A]", "values": [{"measurement": "GI50", "setting": "[1]", "value": 8.23, "unit": "nM"}, {"measurement": "GI50", "setting": "[2]", "value": 3.99, "unit": "nM"}, {"measurement": "GI50", "setting": "[3]", "value": 2.77, "unit": "nM"}, {"measurement": "GI50", "setting": "[4]", "value": 3.65, "unit": "nM"}, {"measurement": "GI50", "setting": "[5]", "value": 0.916, "unit": "nM"}, {"measurement": "GI50", "setting": "[6]", "value": 1.04, "unit": "nM"}, {"measurement": "CC50", "setting": "[6]; read-out: LC50 (the source's name)", "value": 75.2, "unit": "nM"}, {"measurement": "GI50", "setting": "[7]", "value": 3.16, "unit": "nM"}, {"measurement": "GI50", "setting": "[8]", "value": 7, "unit": "nM"}, {"measurement": "GI50", "setting": "[9]", "value": 1.56, "unit": "nM"}, {"measurement": "GI50", "setting": "[10]", "value": 5.49, "unit": "nM"}, {"measurement": "GI50", "setting": "[11]", "value": 2.31, "unit": "nM"}, {"measurement": "GI50", "setting": "[12]", "value": 7.15, "unit": "nM"}, {"measurement": "GI50", "setting": "[13]", "value": 3.28, "unit": "nM"}, {"measurement": "GI50", "setting": "[14]", "value": 0.742, "unit": "nM"}, {"measurement": "GI50", "setting": "[15]", "value": 4.52, "unit": "nM"}, {"measurement": "GI50", "setting": "[16]", "value": 7.12, "unit": "nM"}, {"measurement": "GI50", "setting": "[17]", "value": 2.95, "unit": "nM"}, {"measurement": "GI50", "setting": "[18]", "value": 3.63, "unit": "nM"}, {"measurement": "fold change (FC)", "setting": "[19]", "value": "<=2"}, {"measurement": "fold change (FC)", "setting": "[20]", "value": "<=2"}, {"measurement": "fold change (FC)", "setting": "[21]", "value": "<=2"}, {"measurement": "fold change (FC)", "setting": "[22]", "value": "<=2"}, {"measurement": "fold change (FC)", "setting": "[23]", "value": 10.37}, {"measurement": "fold change (FC)", "setting": "[24]", "value": 2.21}, {"measurement": "fold change (FC)", "setting": "[25]", "value": 2.68}, {"measurement": "fold change (FC)", "setting": "[26]", "value": "<=2"}, {"measurement": "fold change (FC)", "setting": "[27]", "value": "<=2"}, {"measurement": "fold change (FC)", "setting": "[28]", "value": "<=2"}, {"measurement": "fold change (FC)", "setting": "[29]", "value": "<=2"}, {"measurement": "fold change (FC)", "setting": "[30]", "value": -2.52}, {"measurement": "fold change (FC)", "setting": "[31]", "value": "<=2"}, {"measurement": "fold change (FC)", "setting": "[32]", "value": "<=2"}, {"measurement": "fold change (FC)", "setting": "[33]", "value": "<=2"}, {"measurement": "fold change (FC)", "setting": "[34]", "value": "<=2"}, {"measurement": "fold change (FC)", "setting": "[35]", "value": "<=2"}, {"measurement": "fold change (FC)", "setting": "[36]", "value": -2.17}, {"measurement": "fold change (FC)", "setting": "[37]", "value": "<=2"}, {"measurement": "fold change (FC)", "setting": "[38]", "value": "<=2"}, {"measurement": "fold change (FC)", "setting": "[39]", "value": "<=2"}, {"measurement": "fold change (FC)", "setting": "[40]", "value": 6.35}, {"measurement": "fold change (FC)", "setting": "[41]", "value": "<=2"}, {"measurement": "fold change (FC)", "setting": "[42]", "value": 5.19}, {"measurement": "inhibition at 0.005 µM", "setting": "[43]", "value": 61.6, "unit": "%"}, {"measurement": "inhibition at 0.05 µM", "setting": "[44]", "value": 50.2, "unit": "%"}, {"measurement": "inhibition at 0.05 µM", "setting": "[45]", "value": 42.7, "unit": "%"}, {"measurement": "IC50", "setting": "[46]", "value": 60, "unit": "nM"}, {"measurement": "inhibition at 0.015 µM", "setting": "[47]", "value": 58, "unit": "%"}, {"measurement": "IC50", "setting": "[48]", "value": 50, "unit": "nM"}]}]}
